Columns and labels:
TYRO3 = biological target: T1, TYRO3 (Homo sapiens, UniProt Q06418); assay: TR-FRET kinase activity assay, TYRO3; assay type: biochemical; settings: ATP at Km, 60 minutes
T1 sequence (Q06418 41-890): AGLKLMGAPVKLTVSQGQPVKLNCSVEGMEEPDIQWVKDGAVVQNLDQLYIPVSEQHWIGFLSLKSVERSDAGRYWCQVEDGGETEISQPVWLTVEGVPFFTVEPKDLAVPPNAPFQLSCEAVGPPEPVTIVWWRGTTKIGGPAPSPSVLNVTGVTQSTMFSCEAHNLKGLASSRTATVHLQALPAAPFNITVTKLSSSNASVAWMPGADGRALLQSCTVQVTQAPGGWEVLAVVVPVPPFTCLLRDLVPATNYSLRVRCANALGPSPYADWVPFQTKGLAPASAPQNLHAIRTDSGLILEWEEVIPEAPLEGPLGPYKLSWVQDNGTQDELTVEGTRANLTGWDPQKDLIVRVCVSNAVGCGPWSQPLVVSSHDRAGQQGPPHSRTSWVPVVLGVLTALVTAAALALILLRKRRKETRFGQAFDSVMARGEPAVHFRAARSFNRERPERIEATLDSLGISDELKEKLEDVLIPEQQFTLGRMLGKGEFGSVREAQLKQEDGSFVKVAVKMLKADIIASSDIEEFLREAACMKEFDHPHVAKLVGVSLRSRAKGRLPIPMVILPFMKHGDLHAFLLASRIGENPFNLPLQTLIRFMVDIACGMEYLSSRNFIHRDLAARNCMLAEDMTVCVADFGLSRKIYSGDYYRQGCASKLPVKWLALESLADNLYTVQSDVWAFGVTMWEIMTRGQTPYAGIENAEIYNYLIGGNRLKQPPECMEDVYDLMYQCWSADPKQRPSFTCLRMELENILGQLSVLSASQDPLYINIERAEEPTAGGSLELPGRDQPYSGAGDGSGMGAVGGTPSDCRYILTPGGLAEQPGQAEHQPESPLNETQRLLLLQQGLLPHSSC
Summary of the method: (§1)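 Each kinase phosphorylated a fluorescent-labelled tyrosine peptide in 50 mM HEPES pH 7.5, 10 mM MgCl2, 1 mM EGTA, 0.01% Brij 35, 1 mM DTT at RT, with ATP at Km for that enzyme. After 60 min, EDTA quench and Eu-anti-phosphotyrosine antibody (30 min, dark); IC50 from TR-FRET decrease.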

AXL = biological target: T2, AXL (Homo sapiens, UniProt P30530); assay: TR-FRET kinase activity assay, AXL; assay type: biochemical; settings: ATP at Km, 60 minutes
T2 sequence (P30530 26-894): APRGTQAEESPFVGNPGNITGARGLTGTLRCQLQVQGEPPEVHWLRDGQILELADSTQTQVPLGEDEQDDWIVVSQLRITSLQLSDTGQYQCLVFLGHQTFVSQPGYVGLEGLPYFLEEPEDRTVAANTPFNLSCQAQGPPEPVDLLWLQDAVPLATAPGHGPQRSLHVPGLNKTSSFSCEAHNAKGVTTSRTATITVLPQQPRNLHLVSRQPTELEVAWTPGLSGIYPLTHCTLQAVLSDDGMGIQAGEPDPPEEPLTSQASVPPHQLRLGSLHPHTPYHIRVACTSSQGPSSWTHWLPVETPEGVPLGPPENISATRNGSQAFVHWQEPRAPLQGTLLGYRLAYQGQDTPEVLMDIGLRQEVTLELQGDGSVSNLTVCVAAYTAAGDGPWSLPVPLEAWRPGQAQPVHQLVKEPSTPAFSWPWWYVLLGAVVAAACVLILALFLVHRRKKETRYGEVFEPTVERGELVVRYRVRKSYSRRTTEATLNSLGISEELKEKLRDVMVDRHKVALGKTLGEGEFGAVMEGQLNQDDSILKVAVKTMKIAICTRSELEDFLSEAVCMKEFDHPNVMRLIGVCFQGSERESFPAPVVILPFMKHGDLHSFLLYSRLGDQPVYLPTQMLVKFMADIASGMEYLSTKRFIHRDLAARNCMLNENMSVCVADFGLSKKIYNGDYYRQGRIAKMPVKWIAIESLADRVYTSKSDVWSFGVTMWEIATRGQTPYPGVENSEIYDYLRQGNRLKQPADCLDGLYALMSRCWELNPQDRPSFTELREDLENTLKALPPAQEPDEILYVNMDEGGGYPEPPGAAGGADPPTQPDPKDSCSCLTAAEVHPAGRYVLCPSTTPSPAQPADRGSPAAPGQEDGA
Summary of the method: as §1

| IC50 (TYRO3) | IC50 (AXL) | Compound |
| --- | --- | --- |
| 100 to 1000 nM | 100 to 1000 nM | CC[C@H](C)Nc1ncc2c(C3CCN(c4nccc(C)n4)CC3)cc([C@H]3CC[C@H](O)CC3)n2n1 [Compound 136, (trans)-4-(2-((S)-sec-butylamino)-5-(1-(4-methylpyrimidin-2-yl)piperidin-4-yl)pyrrolo[2,1-f][1,2,4]triazin-7-yl)cyclohexanol] |
| ≤ 100 nM | ≤ 100 nM | COC[C@H](C)Nc1ncc2c(-c3ccnc(C(F)(F)F)c3)cc([C@H]3CC[C@H](O)CC3)n2n1 [Compound 584] |
| ≤ 100 nM | ≤ 100 nM | C[C@H](Nc1ncc2c(-c3cnn(C(C)(C)C(=O)N4CCOCC4)c3)cc([C@H]3CC[C@H](O)CC3)n2n1)C(F)(F)F [Compound 537] |
| ≤ 100 nM | 1000 to 10000 nM | COC[C@H](C)Nc1ncc2c(-c3cnn(C4COC4)c3)cc(-c3cccc(O)c3)n2n1 [Compound 511] |
| ≤ 100 nM | ≤ 100 nM | COC[C@H](C)Nc1ncc2c(-c3cnn(C(C)(C)C(=O)N4CCCC5(COC5)C4)c3)cc([C@H]3CC[C@H](O)CC3)n2n1 [Compound 516] |
| ≤ 100 nM | ≤ 100 nM | COC[C@H](C)Nc1ncc2c(-c3cnn(C(C)(C)C(=O)N4C[C@@H](C)N[C@@H](C)C4)c3)cc([C@H]3CC[C@@H](O)CC3)n2n1 [Compound 591] |
| ≤ 100 nM | ≤ 100 nM | COC[C@H](C)Nc1ncc2c(-c3ccc(CN4CCOCC4)cc3)cc([C@H]3CC[C@H](O)CC3)n2n1 [Compound 140] |
| ≤ 100 nM | ≤ 100 nM | COCC(C)Nc1ncc2c(-c3ccc(C(C)N4CCOCC4)cc3)cc(C3CCC(O)CC3)n2n1 (stereo not shown) [Compound 143] |
| ≤ 100 nM | ≤ 100 nM | COC[C@H](C)Nc1ncc2c(-c3cnn(C(C)(C)C(=O)N4CCOCC4)c3)cc([C@H]3CC[C@@](C)(O)CC3)n2n1 [Compound 561] |
| ≤ 100 nM | ≤ 100 nM | COC[C@H](C)Nc1ncc2c(-c3cnn(C(C)(C)C(=O)N4CCO[C@@H](C(C)(C)O)C4)c3)cc([C@H]3CC[C@H](O)CC3)n2n1 [Compound 585] |
| ≤ 100 nM | ≤ 100 nM | CCN(C(=O)N1CCN(c2cc(-c3cc([C@H]4CC[C@H](O)CC4)n4nc(N[C@@H](C)COC)ncc34)ccn2)CC1)C(C)C [Compound 514] |
| ≤ 100 nM | 100 to 1000 nM | COC[C@H](C)Nc1ncc2c(-c3ccnc([S@@](C)(=N)=O)c3)cc([C@H]3CC[C@H](O)CC3)n2n1 [Compound 574] |
| ≤ 100 nM | 1000 to 10000 nM | COCC(C)Nc1ncc2c(-c3cnn(C4COC4)c3)cc(C3CCNC(=O)C3)n2n1 (mixture of isomers) [Compound 592] |
| ≤ 100 nM | 100 to 1000 nM | COC[C@H](C)Nc1ncc2c(-c3cnn(C4COC4)c3)cc([C@@H]3CC[C@H](O)C(C)(C)C3)n2n1 [Compound 571] |
| ≤ 100 nM | 100 to 1000 nM | COC[C@H](C)Nc1ncc2c(-c3cnn(C4COC4)c3)cc(C3CCSCC3)n2n1 [Compound 522] |
| ≤ 100 nM | ≤ 100 nM | C[C@@H](CC(F)(F)F)Nc1ncc2c(-c3ccnc([S@](C)(=N)=O)c3)cc([C@H]3CC[C@H](O)CC3)n2n1 [Compound 580] |
| ≤ 100 nM | ≤ 100 nM | CCCCC[C@H](C)Nc1ncc2c([C@H]3CC[C@@H](C(=O)N4CCS(=O)(=O)CC4)CC3)cc([C@H]3CC[C@H](O)CC3)n2n1 [Compound 137] |
| ≤ 100 nM | ≤ 100 nM | COC[C@H](C)Nc1ncc2c(-c3ccnc(C4COC4)c3)cc([C@H]3CC[C@H](O)CC3)n2n1 [Compound 566] |
| ≤ 100 nM | ≤ 100 nM | CC[C@H](C)Nc1ncc2c(C3CCNCC3)cc([C@H]3CC[C@H](O)CC3)n2n1 [Compound 135, (trans)-4-(2-((S)-sec-butylamino)-5-(piperidin-4-yl)pyrrolo[2,1-f][1,2,4]triazin-7-yl)cyclohexanol] |

| IC50 (TYRO3) | IC50 (AXL) | Compound |
| --- | --- | --- |
| ≤ 100 nM | ≤ 100 nM | CC(COc1ccccc1)Nc1ncc2c(-c3cnn(C4COC4)c3)cc([C@H]3CC[C@H](O)CC3)n2n1 (mixture of isomers) [Compound 528] |
| ≤ 100 nM | ≤ 100 nM | COC[C@H](C)Nc1ncc2c(-c3ccc(C(=O)O)cc3)cc([C@H]3CC[C@H](O)CC3)n2n1 [Compound 139] |
| ≤ 100 nM | ≤ 100 nM | COC[C@H](C)Nc1ncc2c(-c3ccc([S@](C)(=N)=O)nc3)cc([C@H]3CC[C@H](O)CC3)n2n1 [Compound 532] |
| ≤ 100 nM | ≤ 100 nM | COC[C@H](C)Nc1ncc2c(-c3ccnc(N4CCOCC4)c3)cc([C@H]3CC[C@@](C)(O)CC3)n2n1 [Compound 548] |
| ≤ 100 nM | ≤ 100 nM | COC[C@H](C)Nc1ncc2c(-c3ccnc(N4CCc5cnn(C)c5C4)c3)cc([C@H]3CC[C@H](O)CC3)n2n1 [Compound 518] |
| ≤ 100 nM | 100 to 1000 nM | COCC(C)Nc1ncc2c(-c3ccc4[nH]ccc4c3)cc(C3CCC(O)CC3)n2n1 (stereo not shown) [Compound 539] |
| ≤ 100 nM | 100 to 1000 nM | COC[C@H](C)Nc1ncc2c(-c3cnn(C4COC4)c3)cc([C@@H]3CC[C@@H](O)C(C)(C)C3)n2n1 [Compound 570] |
| ≤ 100 nM | ≤ 100 nM | C[C@@H](CC(F)(F)F)Nc1ncc2c(-c3cncc([S@](C)(=N)=O)c3)cc([C@H]3CC[C@H](O)CC3)n2n1 [Compound 582] |
| ≤ 100 nM | ≤ 100 nM | CC(Cc1ccc(F)cc1)Nc1ncc2c(-c3cnn(C4COC4)c3)cc(C3CCC(O)CC3)n2n1 (racemic) [Compound 535] |
| ≤ 100 nM | ≤ 100 nM | COC[C@H](C)Nc1ncc2c(-c3cnn(C(C)(C)C(=O)N4CCOCC4)c3)cc([C@@H]3CCc4cn[nH]c4C3)n2n1 [Compound 594] |
| ≤ 100 nM | ≤ 100 nM | C[C@@H](CC(F)(F)F)Nc1ncc2c(-c3ccc([S@](C)(=N)=O)nc3)cc([C@H]3CC[C@H](O)CC3)n2n1 [Compound 540] |
| ≤ 100 nM | 100 to 1000 nM | COC[C@H](C)Nc1ncc2c(-c3cncc([S@](C)(=N)=O)c3)cc([C@H]3CC[C@@H](O)CC3)n2n1 [Compound 572] |
| ≤ 100 nM | ≤ 100 nM | COC[C@H](C)Nc1ncc2c(-c3ccc([S@@](C)(=N)=O)nc3)cc([C@H]3CC[C@H](O)CC3)n2n1 [Compound 533] |
| ≤ 100 nM | ≤ 100 nM | C[C@@H](COC(F)F)Nc1ncc2c(-c3cnn(C(C)(C)C(=O)N4CCN(C)CC4)c3)cc([C@H]3CC[C@H](O)CC3)n2n1 [Compound 593] |
| ≤ 100 nM | ≤ 100 nM | CCS(=O)(=O)N1CC(CC#N)(n2cc(-c3cc([C@H]4CC[C@H](O)CC4)n4nc(N[C@@H](C)COC)ncc34)cn2)C1 [Compound 567] |
| ≤ 100 nM | ≤ 100 nM | COC[C@H](C)Nc1ncc2c(-c3ccnc(N4CCN(CC5COC5)CC4)c3)cc([C@H]3CC[C@H](O)CC3)n2n1 [Compound 512] |
| ≤ 100 nM | ≤ 100 nM | C[C@@H](CC(F)(F)F)Nc1ncc2c(-c3cncc([S@@](C)(=N)=O)c3)cc([C@H]3CC[C@H](O)CC3)n2n1 [Compound 583] |
| ≤ 100 nM | 100 to 1000 nM | COC[C@H](C)Nc1ncc2c(-c3cnn(C4COC4)c3)cc(C3CCC(F)(F)CC3)n2n1 [Compound 515] |
| ≤ 100 nM | 100 to 1000 nM | COC[C@H](C)Nc1ncc2c([C@H]3CC[C@@H](C(=O)N4CC5(COC5)C4)CC3)cc([C@H]3CC[C@H](O)CC3)n2n1 [Compound 579] |
